The values that follow come from patent publication US10961492B2, “Microfluidic devices and related methods for generation and/or culture and/or maturation of three-dimensional cells and/or tissue constructs” (POLITECNICO DI MILANO, priority 2015, dated 2021).

The assay deals with mature cardiac construct. The experiment in a line: drug screening on mature cardiac construct in the microfluidic device (spontaneous contraction frequency). Type of assay: cell-based, neonatal rats. To be noted: increasing concentrations 1 and 2 μg/ml in culture medium injected in sequence; evaluated 60 seconds after injection; 37° C.; with respect to control construct without drug.

Structures are written as SMILES.

Description: The cells of interest were isolated using the following process. The cardiac tissue removed from the ventricles of neonatal rats was digested in trypsin (0.6 mg/ml, in a Hank balanced saline solution, HBSS) for 18 hours. The digestion was then blocked by adding 10 ml of culture medium (Dulbecco Modified Eagle's Medium, DMEM) containing: 10% of fetal bovine serum, 1% of penicillin-streptomycin, 1% of HEPES and 1% of L-Glutamine. The isolation of the cells from the matrix was then obtained with five passages in a solution of collagenase (1 mg/ml in HBSS) at 37° C. for 5 minutes. The cell suspension thus obtained was centrifuged at 700 rpm for 10 minutes, re-suspended in 25 ml of culture medium and seeded in a culture flask to isolate the fraction of cardiomyocytes (non-adherent).
For seeding inside the device, the cardiac cells thus isolated were diluted in a solution of fibrin gel at a cell concentration of 1×10^5 cells/μl. More specifically, for the seeding of 6 devices, 20 μl of fibrin gel were prepared by mixing 20×10^5 cells (estimated volume of 8.2 μl), 4 μl of calcium chloride, 4 μl of fibrinogen (20 mg/ml in sodium chloride), 2.8 μl of aprotinin (16 TIU/ml in distilled water) and 1 μl of thrombin (5 U/ml in calcium chloride). […]

As to `CCN(CC)CC(=O)Nc1c(C)cccc1C` [lidocaine], the spontaneous contraction frequency result is “decrease in the contraction frequency”.
